In the supplement of paper PMC11451515:

System: P12-Ichikawa
Assay: cell viability relative to DMSO control; higher = less cytotoxic
Details: 48 h
Method in brief: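 Library compounds in DMSO were pin-dosed into 1536-well plates (5 μl) holding NOMO1 or SEM (500 cells/well) or P12-Ichikawa (1000 cells/well) leukemia cells, across an 11-point threefold series of 47 μM to 0.79 nM. Each cell line had been adapted for at least four passages in each medium. CellTiter-Glo One luminescence was read after 48 h at 37°C. Viability is the per-plate percentage relative to DMSO wells, with cell-free wells as background.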

[1] = HPLM + 10% dialyzed FBS, 0.000781 µM
[2] = HPLM + 10% dialyzed FBS, 0.00234 µM
[3] = HPLM + 10% dialyzed FBS, 0.00702 µM
[4] = HPLM + 10% dialyzed FBS, 0.0211 µM
[5] = HPLM + 10% dialyzed FBS, 0.0632 µM
[6] = HPLM + 10% dialyzed FBS, 0.19 µM
[7] = HPLM + 10% dialyzed FBS, 0.569 µM
[8] = HPLM + 10% dialyzed FBS, 1.71 µM
[9] = HPLM + 10% dialyzed FBS, 5.12 µM
[10] = HPLM + 10% dialyzed FBS, 15.4 µM
[11] = HPLM + 10% dialyzed FBS, 46.1 µM
[12] = RPMI 5 mM glucose + 10% FBS, 0.000781 µM
[13] = RPMI 5 mM glucose + 10% FBS, 0.00234 µM
[14] = RPMI 5 mM glucose + 10% FBS, 0.00702 µM
[15] = RPMI 5 mM glucose + 10% FBS, 0.0211 µM
[16] = RPMI 5 mM glucose + 10% FBS, 0.0632 µM
[17] = RPMI 5 mM glucose + 10% FBS, 0.19 µM
[18] = RPMI 5 mM glucose + 10% FBS, 0.569 µM
[19] = RPMI 5 mM glucose + 10% FBS, 1.71 µM
[20] = RPMI 5 mM glucose + 10% FBS, 5.12 µM
[21] = RPMI 5 mM glucose + 10% FBS, 15.4 µM
[22] = RPMI 5 mM glucose + 10% FBS, 46.1 µM
[23] = RPMI 5 mM glucose + 10% dialyzed FBS, 0.000781 µM
[24] = RPMI 5 mM glucose + 10% dialyzed FBS, 0.00234 µM
[25] = RPMI 5 mM glucose + 10% dialyzed FBS, 0.00702 µM
[26] = RPMI 5 mM glucose + 10% dialyzed FBS, 0.0211 µM
[27] = RPMI 5 mM glucose + 10% dialyzed FBS, 0.0632 µM
[28] = RPMI 5 mM glucose + 10% dialyzed FBS, 0.19 µM
[29] = RPMI 5 mM glucose + 10% dialyzed FBS, 0.569 µM
[30] = RPMI 5 mM glucose + 10% dialyzed FBS, 1.71 µM
[31] = RPMI 5 mM glucose + 10% dialyzed FBS, 5.12 µM
[32] = RPMI 5 mM glucose + 10% dialyzed FBS, 15.4 µM
[33] = RPMI 5 mM glucose + 10% dialyzed FBS, 46.1 µM

Row | SMILES | cell viability [1] [%] | cell viability [2] [%] | cell viability [3] [%] | cell viability [4] [%] | cell viability [5] [%] | cell viability [6] [%] | cell viability [7] [%] | cell viability [8] [%] | cell viability [9] [%] | cell viability [10] [%] | cell viability [11] [%] | cell viability [12] [%] | cell viability [13] [%] | cell viability [14] [%] | cell viability [15] [%] | cell viability [16] [%] | cell viability [17] [%] | cell viability [18] [%] | cell viability [19] [%] | cell viability [20] [%] | cell viability [21] [%] | cell viability [22] [%] | cell viability [23] [%] | cell viability [24] [%] | cell viability [25] [%] | cell viability [26] [%] | cell viability [27] [%] | cell viability [28] [%] | cell viability [29] [%] | cell viability [30] [%] | cell viability [31] [%] | cell viability [32] [%] | cell viability [33] [%]
1 | C[C@@H](CN1CC(=O)NC(=O)C1)N1CC(=O)NC(=O)C1 | 104 | 111 | 110 | 109 | 108 | 75 | 47 | 11.5 | 13.7 | 4.45 | 2.49 | 101 | 104 | 98.5 | 116 | 111 | 97.7 | 80.7 | 18.1 | 18.9 | 5.1 | 4.44 | 94.6 | 108 | 96.8 | 110 | 105 | 84 | 61.3 | 19.7 | 20 | 6.43 | 4.62
2 | COC1=CC=C(C(=C1)OC(C)C)C/2=N/[C@@H]([C@@H](N2C(=O)N3CCNC(=O)C3)C4=CC=C(Cl)C=C4)C5=CC=C(Cl)C=C5 | 108 | 113 | 115 | 108 | 109 | 111 | 108 | 102 | 76 | 37.1 | 12.1 | 122 | 125 | 127 | 119 | 116 | 118 | 106 | 111 | 97.2 | 52 | 49.6 | 122 | 119 | 116 | 117 | 125 | 113 | 112 | 110 | 88.3 | 41.5 | 27.8
3 | CN1\C=N/C2=CC=C(NC3=CC(=CC=C3C)NC(=O)C4=CC(=CC=C4)C(C)(C)C#N)C=C2C1=O | 97.1 | 96.9 | 101 | 97.8 | 101 | 94.6 | 87 | 87.4 | 68.5 | 69.3 | 63.2 | 90.4 | 98.7 | 99 | 95 | 96.7 | 93 | 83.6 | 81.3 | 59.6 | 58.4 | 44.4 | 97.5 | 104 | 94 | 102 | 99.5 | 98.7 | 93.3 | 84.8 | 73.4 | 64.1 | 48.1
4 | Cc1ccc([S+](=O)([O-])OCC(=O)Nc2ccc(C(=O)O)c(O)c2)cc1 | 106 | 117 | 122 | 126 | 126 | 133 | 120 | 136 | 121 | 102 | 8.9 |  |  |  |  |  |  |  |  |  |  |  |  |  |  |  |  |  |  |  |  |  | 
5 | O=C(O)c1cc(/N=N/c2ccc([S+](=O)([O-])Nc3ccccn3)cc2)ccc1O | 108 | 107 | 112 | 102 | 113 | 116 | 116 | 107 | 106 | 98.6 | 92.3 | 108 | 111 | 105 | 110 | 119 | 115 | 114 | 122 | 113 | 111 | 108 | 103 | 114 | 110 | 102 | 120 | 114 | 119 | 120 | 110 | 102 | 102
6 | Cc1ccnc2c1NC(=O)c1cccnc1N2C1CC1 | 97.4 | 113 | 112 | 106 | 112 | 115 | 115 | 116 | 105 | 106 | 109 | 98.3 | 109 | 117 | 108 | 110 | 116 | 113 | 115 | 102 | 95.2 | 96.5 | 93.5 | 106 | 99.9 | 110 | 108 | 106 | 104 | 111 | 97.1 | 98.8 | 96.8
7 | NC(=O)c1ccc(N(C(N)=O)c2c(F)cccc2F)nc1-c1ccc(F)cc1F | 101 | 101 | 105 | 101 | 107 | 102 | 106 | 101 | 108 | 95.3 | 104 | 101 | 97.1 | 100 | 98.7 | 108 | 94.7 | 109 | 95.6 | 98.5 | 88.7 | 96.3 | 94.9 | 96.1 | 99 | 102 | 100 | 92.1 | 91 | 92.7 | 91.2 | 87.5 | 88.6
8 | CN(C)CC(C)(C)CNc1nn2c(-c3ccccc3)nnc2cc1C1CCC1 | 106 | 103 | 110 | 111 | 112 | 110 | 94.9 | 111 | 84.2 | 33.9 | 6.88 | 108 | 111 | 104 | 102 | 109 | 106 | 87.8 | 105 | 70.3 | 46.7 | 6.32 | 105 | 111 | 107 | 111 | 113 | 115 | 98.3 | 113 | 88.1 | 76.9 | 13.6
9 | CC(C)OC(=O)[C@H](C)N[P@](=O)(OC[C@H]1O[C@@H](N2\C=C/C(=O)NC2=O)[C@](C)(F)[C@@H]1O)OC3=CC=CC=C3 | 104 | 111 | 117 | 110 | 102 | 108 | 94.3 | 41.5 | 8.75 | 6.42 | 9.25 | 113 | 99 | 124 | 109 | 112 | 101 | 110 | 98.1 | 69.3 | 7.18 | 5.81 | 96.2 | 105 | 106 | 103 | 102 | 102 | 101 | 93.1 | 49.8 | 12 | 11.3
10 | CCCCCCCCCCCCCC(=O)N[C@H](CO)[C@H](O)c1ccc([N+](=O)[O-])cc1 | 99.4 | 90.6 | 100 | 104 | 102 | 102 | 105 | 79.7 | 40.3 | 2.44 | 1.98 | 96.9 | 94.2 | 95.5 | 92.7 | 102 | 84.9 | 89.1 | 55.1 | 21.1 | 3.47 | 1.51 | 89.4 | 81.5 | 90.9 | 94 | 94.8 | 85.8 | 93.4 | 52 | 24.6 | 4.09 | 2.4
11 | C=CC(=O)Nc1cc2c(Nc3ccc(F)c(Cl)c3)ncnc2cc1OCCCN1CCOCC1 | 124 | 132 | 119 | 120 | 118 | 122 | 113 | 109 | 94.3 | 67.2 | 53.1 | 117 | 124 | 125 | 126 | 111 | 110 | 118 | 110 | 93.5 | 73.6 | 89.8 | 134 | 122 | 119 | 126 | 126 | 128 | 127 | 108 | 96.4 | 91.6 | 100
12 | CC(C(=O)O)c1ccc2c(c1)CC(=O)c1ccccc1S2 (stereo unspecified) | 104 | 108 | 107 | 110 | 118 | 106 | 115 | 101 | 111 | 37.5 | 25.1 | 99.3 | 117 | 101 | 104 | 116 | 115 | 118 | 109 | 106 | 24 | 18.8 | 102 | 101 | 101 | 99.2 | 99.5 | 107 | 104 | 109 | 104 | 31.7 | 21.2
13 | CC(N[C@H]1CCCC[C@@H]1NC(=O)c1ccc(Cl)cc1)c1cccc2ccccc12 (stereo partly specified) | 107 | 109 | 114 | 110 | 113 | 115 | 111 | 116 | 114 | 39.7 | 28.1 | 117 | 119 | 113 | 118 | 117 | 115 | 119 | 111 | 102 | 30.9 | 35.2 | 105 | 105 | 109 | 104 | 102 | 113 | 108 | 110 | 106 | 30.6 | 28.7
14 | CNCC[C@H](Oc1cccc2ccccc12)c1cccs1 | 109 | 116 | 111 | 113 | 109 | 96.2 | 112 | 108 | 105 | 95.8 | 25.1 | 126 | 119 | 124 | 120 | 121 | 119 | 112 | 118 | 119 | 111 | 81 | 107 | 115 | 112 | 119 | 105 | 116 | 111 | 105 | 105 | 98.6 | 58
15 | COC1=C(OCCCN2CCOCC2)C=CC\3=C1/N=C(/NC(=O)C4=CN=C(N)N=C4)N5CC/N=C35 | 110 | 97.6 | 99.5 | 100 | 96 | 85.8 | 78.2 | 73.7 | 70.1 | 60.4 | 60.8 | 87.2 | 95.4 | 90.2 | 91.2 | 86.9 | 74.7 | 62.5 | 56.8 | 56.3 | 47.1 | 42 | 87.8 | 95.3 | 98.3 | 99.1 | 87.3 | 82.5 | 67.4 | 62.6 | 58.7 | 49.1 | 45.8
16 | CC12CC3CC(C)(C1)CC(N)(C3)C2 | 122 | 119 | 115 | 115 | 129 | 130 | 124 | 122 | 117 | 89.8 | 58.9 | 109 | 118 | 117 | 120 | 138 | 122 | 131 | 130 | 123 | 112 | 78.4 | 110 | 115 | 116 | 117 | 129 | 117 | 125 | 127 | 115 | 109 | 89.7
